The values below come from BindingDB's records for doi:10.1021/jm030817d (Glaxosmithkline Pharmaceuticals, 2003).

This experiment concerns the target D(3) dopamine receptor (Homo sapiens, UniProt P35462). Nature of the experiment: Binding affinity against human Dopamine receptor D3 expressed in CHO cells by using [125I]iodosulpiride as radioligand.

Sequence of D(3) dopamine receptor (P35462 as listed by the source): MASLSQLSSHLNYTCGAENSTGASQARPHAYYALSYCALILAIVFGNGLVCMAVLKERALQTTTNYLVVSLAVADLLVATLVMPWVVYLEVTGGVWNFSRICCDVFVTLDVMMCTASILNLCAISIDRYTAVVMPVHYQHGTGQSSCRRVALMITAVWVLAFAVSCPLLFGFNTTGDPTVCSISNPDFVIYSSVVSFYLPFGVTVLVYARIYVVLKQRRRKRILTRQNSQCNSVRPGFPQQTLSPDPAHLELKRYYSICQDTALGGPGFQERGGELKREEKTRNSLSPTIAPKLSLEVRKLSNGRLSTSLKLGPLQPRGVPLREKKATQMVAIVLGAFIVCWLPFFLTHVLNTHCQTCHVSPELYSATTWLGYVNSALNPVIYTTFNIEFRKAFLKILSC

As for `CS(=O)(=O)c1ccc2c(c1)CCN(CC[C@H]1CC[C@H](NC(=O)C=Cc3ccccc3F)CC1)CC2`, the Ki (usually the equilibrium dissociation constant of an inhibitor or competing ligand from its target) is 1.3 nM.

`CS(=O)(=O)Oc1ccc2c(c1)CCN(CC[C@H]1CC[C@H](NC(=O)C=Cc3ccccc3F)CC1)CC2` returned a Ki of 1.3 nM.

For `COc1ccccc1C=CC(=O)N[C@H]1CC[C@H](CCN2CCc3ccc(OS(C)(=O)=O)cc3CC2)CC1`, the inhibition constant Ki was determined as 1.3 nM. That is a single-digit nanomolar value.

Regarding `CS(=O)(=O)Oc1ccc2c(c1)CCN(CC[C@H]1CC[C@H](NC(=O)C=Cc3cccc(F)c3)CC1)CC2`, affinity was put at a Ki of 1.3 nM.
